Assays:
A2780 = assay: Cytotoxicity against human A2780 cells; assay type: functional, cell-based
K562 = assay: Cytotoxicity against human K562 cells; assay type: functional, cell-based

Structure (SMILES): CC(C)[C@@H](C)[C@@]1(C)C[C@@H]1[C@@H](C)[C@H]1CC[C@@H]([C@H]2C(=O)[C@@]3(C)CC[C@H](O)C[C@@]34O[C@H]4[C@@H]2O)[C@]1(C)CCO
- IC50 (A2780): 6.3 µM
- IC50 (K562): 7.1 µM
